Marks after values point to notes of the source that are not given here.
Assays:
[1] = target: T1, ATP-sensitive potassium channels in vascular smooth muscles (Rattus norvegicus, UniProt Q63563); test: Association kinetics of [^3H]P1075 binding in aortic rings; parameters: species or system Wistar rat; conditions: 37° C.; drug M: Compound 1 10^−4, Glibencamide 10^−5, ATP 10^−2, ADP 10^−3, UDP 5 × 10^−5, GTP 10^−3, Ade 10^−3; control 4.36 ± 0.45; means ± SD, n = 4~10
T1 construct: The aorta was cut into about 3-5 mm arterial rings and the vascular endothelium was scraped off; from tissue; host or cells: endothelium-removed aortic rings of male Wistar rats
T1 sequence (Q63563 1-1545 isoform Q63563-2): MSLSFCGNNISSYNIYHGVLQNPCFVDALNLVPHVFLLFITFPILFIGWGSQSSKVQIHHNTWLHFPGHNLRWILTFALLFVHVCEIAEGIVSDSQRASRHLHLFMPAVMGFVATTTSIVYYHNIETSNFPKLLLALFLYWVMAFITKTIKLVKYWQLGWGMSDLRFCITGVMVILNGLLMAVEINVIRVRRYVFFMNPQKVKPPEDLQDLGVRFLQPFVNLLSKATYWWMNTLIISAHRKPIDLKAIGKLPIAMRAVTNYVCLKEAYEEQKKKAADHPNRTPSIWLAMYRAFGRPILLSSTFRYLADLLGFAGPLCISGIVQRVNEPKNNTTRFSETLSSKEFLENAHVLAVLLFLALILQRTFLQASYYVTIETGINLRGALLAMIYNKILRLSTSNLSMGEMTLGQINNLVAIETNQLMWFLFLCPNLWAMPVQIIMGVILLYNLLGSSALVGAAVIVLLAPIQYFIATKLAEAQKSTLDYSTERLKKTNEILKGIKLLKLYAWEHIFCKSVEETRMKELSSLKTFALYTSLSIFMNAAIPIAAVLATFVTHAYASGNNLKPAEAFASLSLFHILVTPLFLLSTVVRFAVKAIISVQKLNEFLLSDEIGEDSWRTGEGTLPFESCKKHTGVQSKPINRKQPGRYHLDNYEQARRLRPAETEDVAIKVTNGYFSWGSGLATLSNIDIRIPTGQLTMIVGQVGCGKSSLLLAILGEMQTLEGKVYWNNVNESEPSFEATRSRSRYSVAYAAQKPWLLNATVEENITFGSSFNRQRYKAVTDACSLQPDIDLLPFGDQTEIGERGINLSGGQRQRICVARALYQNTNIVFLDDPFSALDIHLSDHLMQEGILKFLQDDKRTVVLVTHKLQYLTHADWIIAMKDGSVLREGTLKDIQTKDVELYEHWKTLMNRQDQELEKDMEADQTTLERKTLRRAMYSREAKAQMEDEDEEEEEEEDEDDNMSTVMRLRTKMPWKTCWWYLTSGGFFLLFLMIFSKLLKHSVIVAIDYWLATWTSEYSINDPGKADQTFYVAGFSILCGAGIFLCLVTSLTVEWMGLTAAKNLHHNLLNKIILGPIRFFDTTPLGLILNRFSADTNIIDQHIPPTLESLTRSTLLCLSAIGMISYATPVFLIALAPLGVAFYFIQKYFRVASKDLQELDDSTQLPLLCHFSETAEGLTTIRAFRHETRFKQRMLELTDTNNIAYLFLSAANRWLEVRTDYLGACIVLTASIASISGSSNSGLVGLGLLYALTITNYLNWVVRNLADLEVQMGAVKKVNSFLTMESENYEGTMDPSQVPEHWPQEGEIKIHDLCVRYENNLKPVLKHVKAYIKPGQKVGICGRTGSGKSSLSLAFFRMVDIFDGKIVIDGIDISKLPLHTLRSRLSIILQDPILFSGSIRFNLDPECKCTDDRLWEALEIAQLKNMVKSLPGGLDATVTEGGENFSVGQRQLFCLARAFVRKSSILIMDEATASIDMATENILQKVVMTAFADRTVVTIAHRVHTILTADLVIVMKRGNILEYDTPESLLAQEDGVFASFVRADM
T1 sequence (Q63664 whole entry partner): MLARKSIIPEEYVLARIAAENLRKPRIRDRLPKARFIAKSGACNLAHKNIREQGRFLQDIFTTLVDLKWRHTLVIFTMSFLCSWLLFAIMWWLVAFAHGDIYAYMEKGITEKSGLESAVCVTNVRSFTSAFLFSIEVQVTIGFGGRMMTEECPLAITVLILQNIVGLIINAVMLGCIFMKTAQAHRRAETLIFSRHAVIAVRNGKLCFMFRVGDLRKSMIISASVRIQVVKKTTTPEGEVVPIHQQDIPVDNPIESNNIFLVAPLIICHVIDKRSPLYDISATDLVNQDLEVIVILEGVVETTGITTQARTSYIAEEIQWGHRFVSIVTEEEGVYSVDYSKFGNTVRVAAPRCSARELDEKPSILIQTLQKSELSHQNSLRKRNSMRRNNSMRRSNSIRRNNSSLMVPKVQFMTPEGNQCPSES
Source text: Biological activity experiment 4. Allosteric regulation of novel compounds on ATP-sensitive potassium channels in vascular smooth muscles.
To study the allosteric regulation of compound 1 on ATP-sensitive potassium channels in vascular smooth muscles, the radio-labled-ligand was used in the biological activity experiment 4.
1. The allosteric regulation of compound 1 on the binding sites for the selective KATP blocker glibenclamide in vascular smooth muscles was studied as follows: After decapitated, the male Wistar rat (340±20 g) was immediately incised open the thoracic cavity. The aorta was dissected and immersed in the 4° C. buffer containing 10 mM HEPES to wash off the blood, then carefully extirpated the fat, peripheral connective tissues and thrombus. The aorta was cut into about 3-5 mm arterial rings and the vascular endothelium was scraped off with wet tampon. The arterial rings were blotted, weighted and transferred into the tubes containing proper amount of ice colded physiological saline buffer. In the association kinetics experiment, the arterial circles in the tubes were incubated with, compound 1(10^−4M), pinacidil(10^−4M), ATP(10^−2M), ADP(10^−3M), Ade(10^−3M), […] and equal volume of buffer respectively for 10 min in 25° C. water bath, and then added [^3H]-glibenclamide(3 nM). At 5,10,15,20,30,60,90 and 120 min after incubation, 9 mL ice colded Tris buffer (50 mM) was added to terminate the reaction. After washing off the free and bound [^3H]-glibenclamide, the aorta was blotted, transferred to a scintillator, added 50 uL 30% H2O2 and reacted for 2 h at 80° C. After cooling, 2.5 mL ethyl glycol and 5 mL 1% B-BPD xylene were added in sequence, kept stationary for 8 h and measured under a scintillometer for cpm value. The resulting data were fit into a regression line with In[BEQ/(BEQ-Bt)]vs.t and the parameters for association kinetics were obtained. In the disassociation kinetics experiments, the aorta treated as described above and [^3H]-glibenclamide were incubated for 60 min at 25° C., and then 30 uM glibenclamide was added. 0,5,15,30,60,90 and 120 min later, the cpm values for the complex of [^3H]-glibenclamide and KATP were measured. The resulting data were fit into a regression line with In(B/BEQ)]vs.t and the parameters for disassociation kinetics were obtained. 2. The allosteric regulation of compound 1 on the binding sites for the selective KATP activator P1075 in vascular smooth muscles was studied with the method as described above, but some conditions should be changed as follows: the incubation temperature was 37° C. instead of 25° C.;P1075 was used instead of glibenclamide; In the association kinetics experiments, the time points for sampling were 5,10,15,20,30,45,60 and 90 min, while in the disassociation kinetics experiments, that were 1,3,5,10,20,30,45 and 60 min. Biological activity experiment 5. The effects of compound 1 on the specific binding of high selective activator [^3H]P1075 with ATP-sensitive potassium channels in vascular smooth muscles.

SHRsp = test: Prophylaxis and treatment of SHRsp cerebral apoplexy; assay type: in vivo, rats; conditions: for Survival time: control 4.6 ± 3.8; for Survival time / Period needed for onset of cerebral apoplexy: means ± SD; for Period needed for onset of cerebral apoplexy: control 48.3 ± 7.4; for Death rate of cerebral apoplexy / Rate of cerebral apoplexy: n 12; for Death rate of cerebral apoplexy: control 50.0; for Rate of cerebral apoplexy: control 83.3
Experimental: Biological activity experiment 8 the prophylaxis and treatment of cerebral apoplexy with compound 1 of formula Ia
The methods of biological activity experiments were carried out as follows: Desired concentration of compound 1 was prepared with distilled water, while desired concentration of nimodipine was prepared with market available Jinglongyu^T oil. 30 male and 30 female SHRsp (10 weeks old, 120-180 g) were purchased from the vascular disease research center of Academy of Military Medical Science. All SHRsp were divided randomly into five groups based on blood pressure, body weight and sex: control group (fed with equal amount of Jinglongyu^T oil), […], […], […], and 4.0 mg.kg^−1d^−1 nimodipine treated group. Each group contained 12 animals and 4-5 animals were fed in a cage. The feedstaff (containing 23-24% protein) was purchased from experimental animal center of Academy of Military Medical Science. The animals were fed with tap water containing 1% NaCl to accelerate the onset of cerebral apoplexy. 12 normal WKY rats (with the same age and sex with the above) were selected as control, and fed with tap water and the same feedstuff. When reached 11 weeks old, the animals were fed with drugs for experiments.

cordical nerve = test: Cordical nerve apoptosis induced by low level oxygen and glucose; assay type: cell-based, Wistar rats; conditions: for Apoptosis percentage: low level oxygen and glucose 16 h, flow cytometer, control 2.3 ± 1.2, low oxygen and glucose alone 23.8 ± 7.4, means ± SD
Experimental: Biological Activity Experiment 9 The Inhibition Effects of Compound 1 on the Cordical Nerve Apoptosis Induced by Low Level Oxygen and Glucose
The methods of biological activity experiment 9 were carried out as follows: The cordical nerve were prepared from 12-hour old Wistar rats and cultured. See G. Y. Yang, A. L. Bentz. Reperfusion-induced injure to the blood-brain after middle cerebral artery occlusion in rats. Stroke, 1994,25:1658-1665. Serum-free DMEM medium was applied 12 days later. The preparation was incubated in low oxygen tank (95% N2+5% CO2) for 8, 16 and 24 h respectively, and then restored oxygen to normal level for another 24 h. The experiments on five groups were as follows: the control group was cultured for 14 days with normal medium; low level oxygen and glucose treated group was cultured with normal medium for 12 days, then with serum-free medium containing low level oxygen and glucose for 16 h and with normal oxygen level for another 24 h; compound 1 treated group was cultured in serum-free medium containing low level oxygen and glucose for 16 h and with normal oxygen level for another 24 h, then added respectively different concentrations of compound 1 (0.1, 1.0 and 10 umol.L^−1). As to the method for detecting apoptosis by the electron microscopy and flow cytometer, refer to C.Du, R.Hu, C. A. Csernansky, et al. Very delayed infarction after mild focal cerebral ischemia: a role for apoptosis. J.Cereb.Flow Metab., 1996,16:195-201; M.Chopp, Y.Li, N.Jiang, et al. Antibodies against adhesion molecules reduced apoptosis after transient middle artery occlusion in rat brain. J.Cereb.Flow Metab., 1996,16:578-584.

CC(C)NC(C)(C)C(C)C [compound 1, N-(1-methylethyl)-2,3-dimethyl-2-butylamine]
Association kinetics kobs of [^3H]P1075 binding [1]: 2.44 ± 0.80 ×10^−2 nM^−1 · min^−1
Survival time (SHRsp; 0.25 mg · kg^−1d^−1 fed): 7.2 ± 5.3 days
Period needed for onset of cerebral apoplexy (SHRsp; 0.25 mg · kg^−1d^−1 fed): 58.6 ± 14.1 days
Death rate of cerebral apoplexy (SHRsp; 0.25 mg · kg^−1d^−1 fed): 27.3%
Rate of cerebral apoplexy (SHRsp; 0.25 mg · kg^−1d^−1 fed): 72.7%
Survival time (SHRsp; 1 mg · kg^−1d^−1 fed): 10.2 ± 4.1 days
Period needed for onset of cerebral apoplexy (SHRsp; 1 mg · kg^−1d^−1 fed): 60.8 ± 18.9 days
Death rate of cerebral apoplexy (SHRsp; 1 mg · kg^−1d^−1 fed): 20.0%
Rate of cerebral apoplexy (SHRsp; 1 mg · kg^−1d^−1 fed): 40.0* %
Survival time (SHRsp; 4 mg · kg^−1d^−1 fed): 11.8 ± 3.2 days
Period needed for onset of cerebral apoplexy (SHRsp; 4 mg · kg^−1d^−1 fed): 68.6 ± 16.5 days
Death rate of cerebral apoplexy (SHRsp; 4 mg · kg^−1d^−1 fed): 8.3* %
Rate of cerebral apoplexy (SHRsp; 4 mg · kg^−1d^−1 fed): 33.3* %
nerve symptom of cerebral apoplexy (in words) (SHRsp; SHRsp): significantly improve the nerve symptom
Apoptosis percentage (cordical nerve; 0.1 umol · L^−1): 17.6 ± 5.8%
Apoptosis percentage (cordical nerve; 1 umol · L^−1): 13.9 ± 5.2 %
Apoptosis percentage (cordical nerve; 10 umol · L^−1): 10.8 ± 4.1 %
apoptotic changes of cordical nerve cells under electron microscopy (in words) (cordical nerve; 10 umol.L^−1, low level oxygen and glucose): the above mentioned changes were hardly observed

Source: patent US7560473B2 (Institute of Pharmacology and Toxicology Academy of …, priority 2001, dated 2009)
